Test results from paper PMC8599855, “Detection of cancer stem cells by EMT-specific biomarker-based peptide ligands” (Scientific Reports, 2021).

How the values were obtained:
[1] = tested on: SAS-EGFP-Fluc tumor; assay: SAS xenograft mouse model: tumor burden by bioluminescence, CD44 in excised tumors; assay type: in vivo
Method: Frozen tissues sections or cell culture slides were fixed in 4% paraformaldehyde, washed with PBS and permeated with 0.1% Triton X-100 for 5 min before blocking with 20% FBS for 10 min at 37 °C, followed by the incubation with anti-vimentin antibody (cat. MAB3400, Millipore, Bedford, MA, USA) at 4 °C overnight. Sections were washed three times in PBS, each wash lasting 5 min then stained with Cy5-conjugated goat anti- mouse IgG (1:1000, cat. ab6563, Abcam, Cambridge, UK) for 1 h in the dark. All slides were mounted with VECTASHIELD Mounting Medium with DAPI (cat. H-1200, Vector Labs, Burligame, CA, USA) and covered with cover glasses before visualization under a laser-scanning confocal microscope (Zeiss LSM 880, Jena, Germany) with Zen Blue software (ZEISS, Jena, Germany).
All animal procedures were performed in accordance with the Guide for Care and Use of Laboratory Animals and National Yang-Ming University’s IACUC number was 1080110. Immunodeficient male mice (BALB/cAnNCrj-nu/nu, six weeks old, 20 gm) were provided by National Laboratory Animal Center (NLAC), NARLabs, Taiwan. Mice were group-housed (6 animals per cage) in individually ventilated cages (IVC) systems and had unlimited access to food and water. […] For establishment of xenografts, 2 × 10^6 SAS-EGFP-Fluc cells in 100 μL phosphate-buffered saline (PBS) were injected subcutaneously into the animal's right shoulder and 2 × 10^6 SAS-wt cells were injected into the left leg. Growth of the implanted tumors was monitored twice a week and tumor volumes were estimated from caliper measurements according to the following formula: tumor volume = (lengthÍwidth^2) Í0.523. […]
Tumor-bearing mice were anaesthetized with 2% isoflurane and then injected D-luciferin (150 mg/kg body weight diluted in PBS) into the mouse peritoneum. […] The luminescent intensity at tumor sites was analyzed using living image software 3.2 (IVIS 50 Imaging System, Perkin Elmer, Waltham, MA, USA). Bioluminescent signal was recorded as mean photons/s/centimeter^2/steradian (photon/s/cm^2/sr).

[2] = UNC0642 5 mg/kg body weight, UBC xenograft model, any time point post-treatment; cited from earlier work
Text: In the current study, we successfully established a protocol for EMT induction via the combination of the G9a inhibitor and low-dose IR. G9a, mainly catalyzes histone H3K9 methylation, is shown to be overexpressed in many types of cancers, including gastric cancer, ovarian cancer, head and neck cancer, etc. Higher G9a expression levels represent higher methylation levels, thus leading to the transcriptional repression of tumor-suppressor genes and are also associated with poor prognosis in patients. Liu et al. explored that snail-induced EMT and repression of E-cadherin in head and neck sq ...

## COc1cc2c(NC3CCN(C(C)C)CC3)nc(N3CCC(F)(F)CC3)nc2cc1OCCCN1CCCC1 [Unc0642]
[1]; Unc0642 2.5 mg/kg i.p. every two days for 3 times, alone, versus DMSO control, day 18
  Tumor growth (Fluc signal): clear delay in tumor growth
[1]; Unc0642 2.5 mg/kg i.p. plus 2 Gy IR, every two days for 3 times
  Tumor growth (Fluc signal): no significant reduction was observed in Unc0642 plus IR treated mice until Day 21, but drastically dropped down on day 24
[1]; Unc0642/IR alone or Unc0642 plus IR groups versus control, IF staining
  CD44 expression in excised tumors: higher CD44 expression
[2]
  Body weight versus vehicle-treated group: no significant weight changes
